{
  "source": "patent US20100076059A1",
  "about": "“METHOD OF EVALUATING COMPOUND EFFICACIOUS IN TREATING OBESITY BY USING Slc25a10” (priority 2003, published 2010)",
  "key": {"S1c25a10 gene": {"system": "S1c25a10 gene", "assay": "S1c25a10 expression in white adipocytes (WAT) of mouse models, U74A / 25K1.8 chip", "assay_type": "in vivo", "conditions": "non-treated C57BL/6N mice defined as 1", "experimental": "(§1) A mouse model of obesity induced by administration of an NPY Y5 agonist was prepared in the following manner. Nine- to twelve-week-old male mice (C57BL/6J: Clea Japan) were raised under conditions with a room temperature of 23±2° C. and a humidity of 55±15%, with one mouse in each plastic cage. The mice were raised under a 12 hour lightness/darkness cycle, with lights on at 7:00 am and lights off at 7:00 pm. The mice were also given free access to feed (CE-2 (25.4 wt % protein, 50.3 wt % carbohydrate, 4.4 wt % lipid), Clea Japan) and water.\nThe mice were anesthetized with 80 mg/kg sodium pentobarbital (Dynabot) and a 28-gauge sterilized brain infusion cannula (Alzet Co.) was stereotactically implanted in the right cerebral ventricle. The cannula was positioned 0.4 mm behind and 0.8 mm to the side of the bregma, and to a depth of 2 mm, and was anchored vertically with respect to the cranial bone using dental cement. A polyvinyl chloride tube was used to connect the cannula to an osmotic pump (Model #2002: Alzet Co.) filled with 10 mM phosphate buffer containing 0.05% bovine serum albumin (BSA). A solution of D-Try^34 NPY in 10 mM PBS (containing 0.05% BSA) (prepared for 5 μg/day) was filled into the pump, and the pump was implanted subcutaneously at the back of the mouse for continuous infusion. An antibiotic (50 mg/kg cefamedine, product of Fujisawa Pharmaceutical Co., Ltd.) was also subcutaneously injected.\nThe mice were divided into three groups: a normally-fed group given infusion of the solvent alone (vehicle group); an obesity-induced group given infusion of D-Try^34 NPY (NYP Y5 agonist) with an increased food amount (ad lib fed group); and a group given infusion of D-Try^34 NPY but with food restricted to the same amount as the vehicle group (pair-fed group).\nas §1, with “MCH (melanin-concentrating hormone)” for “an NPY Y5 agonist”, “Thirteen-week-old” for “Nine- to twelve-week-old”, “food” for “feed”, “water. […]” for “water.”\nThe mouse models prepared in Preparation Examples 1-4 were used for measurement of S1c25a10 expression in white adipocytes (WAT). The expression levels were measured by treating RNA extracted from white adipocytes from each mouse model using a mouse U74A chip (Affymetrix) and a mouse 25K1.8 chip (Rossetta)."}, "mouse S1c25a10 gene": {"system": "mouse S1c25a10 gene", "assay": "Suppression of mouse S1c25a10 expression by siRNA transfection (RNAi)", "assay_type": "cell-based", "conditions": "siRNA to mouse S1c25a10 gene", "text": "(§2) First, a silencer siRNA construction kit (Ambion Inc.) was used to synthesize siRNA. Next, in order to determine the optimum sequences for human or mouse S1c25a10, twelve different sequences were examined based on suppression of S1c25a10 expression. FIG. 6(a) and (b) show the relative expression levels of S1c25a10 gene in each of the siRNA-transfected cells.\nThe nucleotide sequences of siRNA corresponding to the mouse S1c25a10 gene (NM_013770) are also shown below."}, "human S1c25a10 gene": {"system": "human S1c25a10 gene", "assay": "Suppression of human S1c25a10 expression by siRNA transfection (RNAi)", "assay_type": "cell-based", "conditions": "siRNA to human S1c25a10 gene", "text": "as §2\nThe sequence of each siRNA is shown below. The “Position” indicates the corresponding nucleic acid position of the human S1c25a10 gene (NM_012140) for each siRNA.\nNext, siRNA-transfected cells were prepared. For siRNA transfection, the cells were seeded on a 6-well plate at a density of 2×10^4 cells/well. After 24 hours, the siRNA (H4 or H10) was transfected into the cells using Oligofectamine (Invitrogen). On the 2nd day after transfection, the cells were harvested and RNA was prepared using RNeasy (Qiagen). cDNA was prepared from the RNA by quantitative RT-PCR (Applied Biosystems), for quantitation of the S1c25a10 and ACC1 expression levels."}, "HEK293 cells": {"system": "HEK293 cells", "assay": "DiOC6 staining of mitochondrial proton gradient in HEK293 cells", "assay_type": "cell-based", "conditions": "DiOC6-stained HEK293 cells", "experimental": "First, HEK293 cells were seeded in a 6-well plate at a density of 2×10^6 cells/well. After 24 hours, S1c25a10 gene cloned in pcDNA 3.1 vector was transfected into the cells using Lipofectamine 2000. As a negative control there were used cells having only the vector transfected, and as positive controls there were used cells having mouse UCP1 transfected and cells having human UCP3 transfected.\nAfter 48 hours from transfection of the gene, the mitochondrial gradient sensitivity-indicating agent DiOC6 (3-3′-dihexyloxacarbocyanine iodide) was used for staining. The staining was performed by treating the cells with 0.3 μM DiOC6 for 20 minutes followed by rinsing twice with PBS. DiOC6 binds to mitochondria in greater amount as the proton gradient increases, emitting strong fluorescence. On the other hand, it binds to mitochondria in lower amount as the proton gradient decreases, resulting in weaker fluorescent intensity.\nFIG. 1(a) is a confocal micrograph showing DiOC6-stained HEK293 cells treated with CCCP (carbonyl cyanide m-chlorophenylhydrazone) which uncouples the intracellular mitochondrial proton gradient, and FIG. 1(b) is a photograph of HEK293 cells without CCCP treatment. With the untreated HEK293 cells, the intracellular mitochondria are clearly stained by outlining dots. […] It was thus confirmed that the mitochondria had been stained in a proton gradient-specific manner. […]"}, "[1]": {"conditions": "administered mice, ad lib fed (FF)"}},
  "note": "Where no end group is shown, it is not given here.",
  "data": [
    {"compound": "melanin-concentrating hormone (DFDMLRCMLGRVYRPCWQV; ends and bridges not checked; cysteine pairing not given here; UniProt P56942 147-165, looked up) [MCH, MCH infused i.c.v. to induce obesity in mice]", "values": [
      {"measurement": "Slc25a10 expression", "setting": "S1c25a10 gene; [1]", "result": 1.7},
      {"measurement": "Slc25a10 expression", "setting": "S1c25a10 gene; pair feeding (PF) mice", "result": 2.4}
    ]},
    {"compound": "M8: siRNA to mouse S1c25a10 gene, Position 1159, SEQ ID NOs: 41 and 42 (chain 1 AAGTGGCACCTCTGCCCTACTCCTGTCTC; chain 2 AAAGTAGGGCAGAGGTGCCACCCTGTCTC; listed as DNA, chemistry not given here)", "values": [
      {"measurement": "S1c25a10 gene expression (inhibiting effect)", "setting": "mouse S1c25a10 gene", "result": "particularly powerful inhibiting effects"},
      {"measurement": "S1c25a10 gene expression (inhibiting effect)", "setting": "mouse S1c25a10 gene; listed as siRNA consisting of nucleic acids of SEQ ID NOs: 41 and 42", "result": "powerfully inhibit S1c25a10 expression"},
      {"measurement": "S1c25a10 gene expression (inhibiting effect)", "setting": "mouse S1c25a10 gene; listed as siRNA consisting of the nucleic acids of SEQ ID NOs: 41 and 42", "result": "significantly reduce expression"}
    ]},
    {"compound": "H4: siRNA to human S1c25a10 gene, Position 556, SEQ ID NOs: 9 and 10 (chain 1 AAACAGTCTCCTGAGACCCTCCCTGTCTC; chain 2 AAGAGGGTCTCAGGAGACTGTCCTGTCTC; listed as DNA, chemistry not given here)", "values": [
      {"measurement": "S1c25a10 gene expression (inhibiting effect)", "setting": "human S1c25a10 gene", "result": "particularly powerful inhibiting effects"},
      {"measurement": "S1c25a10 gene expression (inhibiting effect)", "setting": "human S1c25a10 gene; listed as siRNA consisting of nucleic acids of SEQ ID NOs: 9 and 10", "result": "powerfully inhibit S1c25a10 expression"},
      {"measurement": "S1c25a10 gene expression (inhibiting effect)", "setting": "human S1c25a10 gene; listed as siRNA consisting of the nucleic acids of SEQ ID NOs: 9 and 10", "result": "significantly reduce expression"}
    ]},
    {"compound": "N#CC(C#N)=NNc1cccc(Cl)c1", "note": "[CCCP, carbonyl cyanide m-chlorophenylhydrazone]", "values": [
      {"measurement": "fluorescent intensity", "setting": "HEK293 cells; confocal micrograph, versus untreated cells", "result": "significantly reduced"},
      {"measurement": "Mean fluorescent intensity", "setting": "HEK293 cells; flow cytometer", "result": 5.4}
    ]},
    {"compound": "D-Try^34 NPY", "values": [
      {"measurement": "Slc25a10 expression", "setting": "S1c25a10 gene; [1]", "result": 3.0},
      {"measurement": "Slc25a10 expression", "setting": "S1c25a10 gene; pair feeding (PF) mice", "result": 1.9}
    ]}
  ]
}
